Experimental data from patent publication US20020076833A1, “Analysis of biological samples utilizing a coated solid phase” (priority 2000, published 2002).

Legend:
Format in all cases: cell-based, human
[1] = system: membrane-bound P-selectin on platelets; test: 1-Step membrane P-selectin assay in whole blood (Example 5); conditions: 10 μM ADP for two minutes, formalin fixed
Protocol: Whole blood was obtained from a healthy volunteer and collected into a blood collection tube containing D-phe-pro-arg-chloromethylketone (PPACK, Dihydrochloride). An aliquot of whole blood was stimulated with 10 μM adenosine diphosphate (ADP) for two minutes and then fixed for two minutes with neutral buffered formalin (1% final concentration). Another aliquot was not treated with ADP, but only fixed with 1% neutral buffered formalin for two minutes
To 100 μL of each of the above three sample preparations the following reagents were added: 50 μL of FITC-labeled anti-P-selectin (anti-CD62P) rabbit polyclonal antibody (at 20 μg/mL) and 50 μL of 0.5% (w/v) paramagnetic microparticles (3.7 micron (μm)) coated with anti-glycoprotein GPIb (CD42b) murine monoclonal antibody (Mab). The mixtures were incubated at room temperature for either 10 or 15 minutes. The microparticles were separated magnetically and the supernatant was removed. The microparticles were washed by re-suspension in 200 μL of PBS supplemented with 1% bovine serum albumin (BSA) followed by magnetic separation of the microparticles and removal of the supernatant. This sequence was repeated and the microparticles were re-suspended in 0.1% SDS at pH 11. The microparticles were separated magnetically and the supernatants were transferred to a 96 well plate and examined for fluorescence intensity.

[2] = system: membrane P-selectin on platelets; test: 2-Step membrane P-selectin assay in whole blood (Example 6); conditions: 10 μM ADP (with 1.0 uM Epinepherine where named) for two minutes, formalin treated
Protocol: Whole blood was obtained from a healthy volunteer and collected into a sample collection tube containing D-Phe-Pro-Arg-chloromethylketone (PPACK, dihydrochloride). An aliquot of whole blood was stimulated with 10 μM adenosine diphosphate (ADP) and 1.0 uM Epinepherine for two minutes and then treated for two minutes with neutral buffered formalin (1% final concentration). An additional aliquot of whole blood was stimulated with 10 μM ADP for two minutes and then treated for two minutes with neutral buffered formalin. An additional aliquot of whole blood was treated for two minutes with 1% neutral buffered formalin for two minutes without ADP stimulation.
50 μL of 0.5% (w/v) paramagnetic microparticles (3.7 micron (μm)), which were coated with anti-glycoprotein GP1b murine monoclonal antibodies (Mab), were added to 100 μL of each of the above sample preparations. The mixtures were incubated at room temperature for 10 minutes. The microparticles were separated magnetically and the supernatant was removed. The microparticles were washed by re-suspension in 200 μL of PBS supplemented with 1% BSA. The microparticles were again separated magnetically and the supernatant removed. […] The microparticles were separated magnetically and the supernatants transferred to a 96 well plate and examined for fluorescence intensity.

[3] = system: membrane GPIIb/IIIa on platelets; test: GPIIb/IIIa assay with fibrinogen-coated microparticles (Example 7); conditions: two minutes
Protocol: 3.7 micron (μm) carboxyl-modified paramagnetic microparticles were coated with Human Fibrinogen which interacts and binds with the complexed form of the platelet membrane surface component glycoproteins GPIIb/GPIIIa (CD41/CD61). The coated particles were re-suspended in phosphate buffered saline (PBS) buffer at 0.5% w/v.
(§1) Whole blood was obtained from a healthy volunteer and collected into a 3.0 mL blood collection tube containing 0.3 μg D-phe-pro-arg-chloromethylketone (PPACK, Dihydrochloride) and 2.1 mL Hanks' Balanced Salt supplemented with 10 mM HEPES, pH 7.4. An aliquot of this whole blood preparation was stimulated with 10 μM adenosine 5′-diphosphate (ADP) for two minutes prior to being tested in the assay. Another aliquot was stimulated with 2 μM adenosine 5′-diphosphate (ADP) for two minutes prior to being tested in the assay, and a final aliquot was not treated with ADP.
To a set of 5 μL, 10 μL, and 20 μL of each of the above three sample preparations 20 μL of FITC-labeled anti-IIb/IIIa (anti-CD41a) mouse monoclonal antibody (at 20 μg/mL) was added. The mixture was incubated for 10 minutes at room temperate at which point 50 μL of 0.5% (w/v) paramagnetic microparticles (3.7 micron (μm)) coated with Fibrinogen was added. The mixtures were incubated at room temperature for an additional 10 minutes. The microparticles were separated magnetically and the supernatant was removed. The microparticles were washed by re-suspension in 200 μL of PBS supplemented with 1% bovine serum albumin (BSA), followed by magnetic separation of the microparticles and removal of the supernatant. This sequence was repeated three times and the microparticles were re-suspended in 0.1% SDS at pH 11. The microparticles were separated magnetically and the supernatants were transferred to a 96 well plate and examined for fluorescence intensity.

[4] = system: membrane-bound P-selectin on platelets; test: Membrane P-Selectin assay (Example 8); conditions: two minutes
Protocol: as §1
To a set of 10 μL and 20 μL of each of the above three sample preparations 20 μL of FITC-labeled anti P-Selectin (anti-CD62P) rabbit polyclonal antibody (at 20 μg/mL) was added. The mixture was incubated for 10 minutes at room temperate at which point 50 μL of 0.5% (w/v) paramagnetic microparticles (3.7 micron (μm)) coated with anti-glycoprotein GP1b (CD42b) murine monoclonal antibody (Mab) was added. The mixtures were incubated at room temperature for an additional 10 minutes. The microparticles were separated magnetically and the supernatant was removed. The microparticles were washed by re-suspension in 200 μL of PBS supplemented with 1% bovine serum albumin (BSA) followed by magnetic separation of the microparticles and removal of the supernatant. This sequence was repeated three times and the microparticles were re-suspended in 0.1% SDS at pH 11. The microparticles were separated magnetically, and the supernatants were transferred to a 96 well plate and examined for fluorescence intensity.

Q: `Nc1ncnc2c1ncn2[C@@H]1O[C@H](COP(=O)(O)OP(=O)(O)O)[C@@H](O)[C@H]1O` [ADP, adenosine diphosphate] was tested. Which “FITC Signal Detected” value ([1]; 10 min. incubation) did it give?
A: The value was 1235.

Q: What about the “FITC Signal Detected” value ([1]; 15 min. incubation) of the same molecule?
A: Its value is 1526.

Q: What about the FITC Signal Detected [2] of the same molecule?
A: The FITC Signal Detected was 17349.

Q: And the “FITC Signal Detected” value ([3]; 2 uM ADP, sample volume 5 μL)?
A: The value was 524.

Q: And the “FITC Signal Detected” value ([3]; 2 uM ADP, sample volume 10 μL)?
A: Its value is 579.

Q: And the “FITC Signal Detected” value ([3]; 2 uM ADP, sample volume 20 μL)?
A: Its value is 896.

Q: What about the “FITC Signal Detected” value ([3]; 10 uM ADP, sample volume 5 μL) of the same molecule?
A: The value was 525.

Q: And the “FITC Signal Detected” value ([3]; 10 uM ADP, sample volume 10 μL)?
A: Its value is 616.

Q: And the “FITC Signal Detected” value ([3]; 10 uM ADP, sample volume 20 μL)?
A: The value was 1031.

Q: What about the “FITC Signal Detected” value ([4]; 2 μM ADP, sample volume 10 μL) of the same molecule?
A: Its value is 1544.

Q: What about the “FITC Signal Detected” value ([4]; 2 μM ADP, sample volume 20 μL) of the same molecule?
A: Its value is 2390.

Q: What about the “FITC Signal Detected” value ([4]; 10 μM ADP, sample volume 10 μL) of the same molecule?
A: Its value is 1749.

Q: And the “FITC Signal Detected” value ([4]; 10 μM ADP, sample volume 20 μL)?
A: The value was 2747.
